PubChem BioAssay (NCI)
Values joined by “and” are separate entries in the source; they are usually repeats but may differ in a detail not shown here. Identical values can stand only once.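 The compound was tested at five concentrations on cells cultured in 96-well plates, with a 48-hour exposure period. Here, GI50 denotes the concentration required for 50% inhibition of growth. Definition used: TGI = concentration required for complete inhibition of growth.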

Tests used:
Test in all cases: NCI-60 cell line screen, 48 h
A549 NSCLC = test system: A549 NSCLC
DLD-1 colon = test system: DLD-1 colon
DMS 273 small cell lung = test system: DMS 273 small cell lung
KM20L2 colon = test system: KM20L2 colon
LXFL 529 NSCLC = test system: LXFL 529 NSCLC
SK-OV-3 ovarian = test system: SK-OV-3 ovarian
SR leukemia = test system: SR leukemia
SN12K1 renal = test system: SN12K1 renal
XF 498 CNS = test system: XF 498 CNS
MDA-MB-231 breast = test system: MDA-MB-231 breast
T-47D breast = test system: T-47D breast

Compound | TGI (A549 NSCLC) | TGI (DLD-1 colon) | TGI (DMS 273 small cell lung) | TGI (KM20L2 colon) | TGI (LXFL 529 NSCLC) | TGI (SK-OV-3 ovarian) | TGI (SR leukemia) | TGI (SN12K1 renal) | TGI (XF 498 CNS) | GI50 (MDA-MB-231 breast) | TGI (MDA-MB-231 breast) | GI50 (SR leukemia) | GI50 (T-47D breast) | TGI (T-47D breast) | GI50 (SK-OV-3 ovarian) | GI50 (DLD-1 colon) | GI50 (DMS 273 small cell lung) | GI50 (KM20L2 colon) | GI50 (SN12K1 renal) | GI50 (XF 498 CNS)
Cn1cnc([N+](=O)[O-])c1Sc1nc2cc(Cl)c(F)cc2[nH]1 | 54300 nM | 22700 nM | 17200 nM | 26900 nM | 19200 nM | 61900 nM | 12400 nM |  |  |  |  |  |  |  |  |  |  |  |  | 
Cc1c2cc[nH]c(C(F)(F)F)c2cc2c1nc1ccccc12 | > 125000 nM | > 125000 nM | > 125000 nM | > 125000 nM |  | > 125000 nM |  | > 125000 nM | > 19800 nM |  |  |  |  |  |  |  |  |  |  | 
O=C(Nc1cccc2ccccc12)Oc1ccccc1C1CCCCC1 | 44100 nM | 44800 nM | 38100 nM | 47500 nM | 38900 nM | 67700 nM | 57000 nM |  |  |  |  |  |  |  |  |  |  |  |  | 
COC(=O)C(=O)C(C(=O)Nc1cccc(C)c1C)C1Sc2ccccc2NC1=O (configuration not stated) | > 25000 nM | > 25000 nM | > 25000 nM | > 25000 nM | > 25000 nM | > 25000 nM | > 25000 nM |  | > 25000 nM |  |  |  |  |  |  |  |  |  |  | 
FC(F)(F)c1ccc(-c2nc(-c3nc4cc(Cl)c(Cl)cc4[nH]3)c3ccccn23)cc1 |  |  |  |  |  |  | > 100000 nM |  |  | 2490 nM | > 100000 nM | > 100000 nM | 4060 nM | > 100000 nM |  |  |  |  |  | 
COc1cc2c(cc1OCCCN1CCN(CCCOc3cc4c(cc3OC)C(=O)N3CCC[C@H]3C=N4)CC1)C=CC(C)(C)O2 |  |  |  |  |  | 2990 nM |  |  |  | 1310 nM | 2580 nM |  | 792 nM | 2430 nM | 1610 nM |  |  |  |  | 
CCC1(O)CC(OC2CC(N(C)C)C(OC3CC4OC5CC(=O)C(C)OC5OC4C(C)O3)C(C)O2)c2c(cc3c(c2O)C(=O)c2c(O)ccc(O)c2C3=O)C1C(=O)OC (configuration not stated) |  | 690 nM and 130 nM | 34.2 nM and 21.7 nM | 356 nM and 46.2 nM and 88.9 nM | 1180 nM |  |  | 36.9 nM and 32.5 nM | 19.9 nM and 10.3 nM |  |  |  |  | 17.2 nM and 15.2 nM |  | 9.84 nM | 7.5 nM | 3.51 nM and 7.5 nM | 8.62 nM | 2.56 nM
O=c1cnn(C/C=C\CO)c(=O)[nH]1 | > 100000 nM |  |  |  |  |  | > 100000 nM |  |  |  | > 100000 nM |  |  | > 100000 nM |  |  |  |  |  | 
